The subject of data set [1] is SH-SY5Y cells. The experiment in a line: Toxicity in neuronal SH-SY5Y cells, MTT assay. The class given is cell-based. The settings on record: for toxic effects: 24 h, at 80 μM; for pIC50: Homo sapiens, read-out: IC50 (concentration resulting in 50% inhibition of neuronal viability), 24 h, 2.5-80 μM. As to the method: […]. Human neuronal SH-SY5Y cells were routinely grown in Dulbecco’s modified Eagle’s Medium supplemented with 10% fetal bovine serum, 2 mM L-glutamine, 50 U/mL penicillin and 50 µg/mL streptomycin at 37 °C in a humidified incubator with 5 % CO2.
SH-SY5Y cells were seeded in a 96-well plate at 2 × 10^4 cells/well, incubated for 24 h and then treated with the compounds for 24 h. Cell viability, in terms of mitochondrial metabolic function, was evaluated by 3-(4,5-dimethylthiazol-2-yl)-2,5-diphenyltetrazolium bromide (MTT) test, as previously described.
On the technique in general: Tetrazolium dyes change colour on reduction, which living cells bring about.

Data set [2] deals with SH-SY5Y cells. Description: ROS formation induced by t-BOOH in SH-SY5Y cells, H2DCF-DA probe. Also on record: key to Direct Antioxidant Activity in SH-SY5Y Cells (percentage inhibition of ROS formation induced by t-BOOH): In: inactive. Format: cell-based, human. The note with it: for inhibition at 10 µM: Homo sapiens, SH-SY5Y, chronic treatment 24 h with compound 10 μM, then t-BOOH 100 μM for 30 min, read-out: Indirect Antioxidant Activity in SH-SY5Y Cells (percentage inhibition of ROS formation induced by t-BOOH); for Direct Antioxidant Activity in SH-SY5Y Cells (percentage inhibition of ROS formation induced by t-BOOH): simultaneous treatment 30 min, compound 10 µM and t-BOOH 100 μM. As to the method: In parallel, we evaluated the antioxidant activity of the compounds not associated with toxicity (Figure 5) against the ROS formation induced by t-BOOH in SH-SY5Y cells. To appraise the direct and indirect antioxidant activity, the SH-SY5Y cells were simultaneously treated for 30 min with 3a, 3b and 3e (10 µM) and t-BOOH (100 µM) or chronically treated for 24 h (the time necessary to activate the endogenous antioxidant system) with 3a, 3b and 3e (10 µM) and then exposed to t-BOOH (100 µM) for 30 min, respectively. Then, the intracellular ROS formation was detected by using the fluorescent probe 2′,7′-dichlorodihydrofluorescein diacetate (H2DCF-DA).
(§1) Human neuronal SH-SY5Y cells were routinely grown in Dulbecco’s modified Eagle’s Medium supplemented with 10% fetal bovine serum, 2 mM L-glutamine, 50 U/mL penicillin and 50 µg/mL streptomycin at 37 °C in a humidified incubator with 5 % CO2.
SH-SY5Y cells were seeded in a 96-well plate at 2 × 10^4 cells/well, incubated for 24 h, and then treated with compounds for 24 h before or during the treatment of 30 min with t-BOOH. ROS formation was evaluated by using the fluorescent probe H2DCF-DA, as previously described.

Data set [3] deals with SH-SY5Y cells. Description: Intracellular GSH levels in SH-SY5Y cells, MCB assay. The class given is cell-based, human. The settings on record: 24 h, 2.5–10 μM. The method, then: Among the endogenous antioxidants in the central nervous system, glutathione (GSH) plays an important role to maintain the redox balance by directly interacting with ROS formed during the physiological metabolic processes. […] We therefore evaluated the ability of compounds 3a, 3b and 3e to modulate the intracellular GSH levels in SH-SY5Y cells, after 24 h of treatment using the fluorescent probe monochlorobimane (MCB).
as §1
SH-SY5Y cells were seeded in a black 96-well plate at 2 × 10^4 cells/well, incubated for 24 h and then treated with the compounds for 24 h. GSH levels were evaluated by using monochlorobimane, as previously described

The target in another data set is T1, EeAChE (Electrophorus electricus, UniProt O42275).
T1 construct: purified from Electrophorus electricus; purchased Sigma-Aldrich type V-S; host or cells: Electrophorus electricus (natural source)
The experiment in a line: AChE inhibition, modified Ellman kinetic assay. Format: biochemical. As to the method: (§2) For in vitro evaluation of inhibition of EeAChE (EC3.1.1.7, type V-S, purified from Electrophorus electricus) and eqBuChE (EC 3.1.1.8, purified from equine serum, both from Sigma-Aldrich), the kinetic assay was performed according to the Ellman method modified using 96-well plates as previously described. […]. Progression curves were acquired using the Softmax PRO 5.0 software (Molecular Devices) from which the maximum hydrolysis velocity was calculated and the analysis performed with the Prism 5 software (GraphPad Inc., La Jolla, CA, USA). […]. The solvent had no detectable effect at the highest concentration used (0.2% v/v).
A general note: DTNB colorimetry detects thiols as they appear.

Another data set has as its target T2, eqBuChE (Equus caballus, UniProt P81908).
T2 construct: purified from equine serum; purchased Sigma-Aldrich; host or cells: equine serum (natural source)
The experiment in a line: BuChE inhibition, modified Ellman kinetic assay. The class given is biochemical. As to the method:
as §2

Data set [4] concerns SH-SY5Y cells. The experiment in a line: Neuroprotective activity against Aβ42 oligomers in SH-SY5Y cells, MTT assay. Format: cell-based, human. The note with it: 3e 5 µM with OAβ42 10 µM, 4 h. The method, then:
Given the best antioxidant profile of compound 3e we also evaluated its ability to protect the SH-SY5Y cells against the neurotoxicity elicited by Aβ42 peptide oligomers (OAβ42), soluble aggregates of Aβ peptides involved in the pathogenesis of AD.
as §1
Aβ42 peptide (AnaSpec, Fremont, CA, USA) was first dissolved in 1,1,1,3,3,3-hexafluoroisopropanol to 1 mg/mL, sonicated, incubated at room temperature for 24 h, and lyophilised to obtain an unaggregated Aβ42 peptide film that was solubilised with DMSO and stored at −20 °C until use. The aggregation of Aβ42 peptide into oligomers was performed as previously described. SH-SY5Y cells were seeded in a 96-well plate at 3 × 10^4 cells/well, incubated for 24 h, and treated with the compounds for 24 h. The cells were then treated for 4 h with 3e [5 μM] and OAβ1-42 [10 μM]. The neuroprotective activity, in terms of increase in intracellular MTT granules, was measured by MTT assay, as previously described.

The record followed here is PMC7397262, “Design, Synthesis and Biological Evaluation of Novel Triazole N-acylhydrazone Hybrids for Alzheimer’s Disease” (Molecules, 2020).

pIC50: −log10 of the molar value.

T1 sequence (O42275 24-633): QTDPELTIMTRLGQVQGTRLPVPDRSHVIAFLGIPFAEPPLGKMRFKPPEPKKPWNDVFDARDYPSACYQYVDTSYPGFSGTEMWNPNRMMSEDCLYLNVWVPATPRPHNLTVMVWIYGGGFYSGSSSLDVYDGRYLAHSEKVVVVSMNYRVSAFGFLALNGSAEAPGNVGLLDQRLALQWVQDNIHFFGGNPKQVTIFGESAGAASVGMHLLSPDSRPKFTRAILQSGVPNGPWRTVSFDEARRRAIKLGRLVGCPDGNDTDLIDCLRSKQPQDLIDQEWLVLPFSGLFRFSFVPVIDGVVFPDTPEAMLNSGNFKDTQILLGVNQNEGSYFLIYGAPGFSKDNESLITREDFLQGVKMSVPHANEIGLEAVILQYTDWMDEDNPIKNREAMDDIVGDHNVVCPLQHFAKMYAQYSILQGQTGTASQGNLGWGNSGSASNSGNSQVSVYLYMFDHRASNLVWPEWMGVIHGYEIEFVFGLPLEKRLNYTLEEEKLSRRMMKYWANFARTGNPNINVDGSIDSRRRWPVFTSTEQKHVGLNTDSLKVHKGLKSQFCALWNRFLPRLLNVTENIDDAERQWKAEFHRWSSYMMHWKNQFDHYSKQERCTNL
T2 sequence (P81908 whole entry): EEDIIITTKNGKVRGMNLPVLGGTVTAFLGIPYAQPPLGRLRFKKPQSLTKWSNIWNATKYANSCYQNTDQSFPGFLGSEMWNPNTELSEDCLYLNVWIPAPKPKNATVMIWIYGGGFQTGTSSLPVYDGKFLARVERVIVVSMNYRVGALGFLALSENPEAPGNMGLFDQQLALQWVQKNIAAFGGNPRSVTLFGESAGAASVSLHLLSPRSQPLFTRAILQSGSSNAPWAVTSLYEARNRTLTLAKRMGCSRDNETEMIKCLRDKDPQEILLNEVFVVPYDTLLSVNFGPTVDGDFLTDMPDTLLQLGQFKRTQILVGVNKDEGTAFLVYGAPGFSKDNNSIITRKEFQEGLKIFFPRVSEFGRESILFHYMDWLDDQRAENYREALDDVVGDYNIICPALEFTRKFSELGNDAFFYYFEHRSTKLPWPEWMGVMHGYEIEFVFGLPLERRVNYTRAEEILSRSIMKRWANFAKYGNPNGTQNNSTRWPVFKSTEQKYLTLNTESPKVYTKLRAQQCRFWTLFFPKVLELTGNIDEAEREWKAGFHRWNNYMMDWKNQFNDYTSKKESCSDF

With `COc1cc(Cn2cc(C(=O)N/N=C/c3ccc(O)cc3)nn2)ccc1O` [3a, (E)-1-(4-Hydroxy-3-methoxybenzyl)-N’-(4-hydroxybenzylidene)-1H-1,2,3-triazole-4-carbohydrazide], in the data set on SH-SY5Y cells [1], the toxic effects entry is listed as “did not show any toxic effects” and the pIC50 was less than 4.10. In the data set on SH-SY5Y cells [2], the inhibition at 10 µM amounted to 20.6% and the “Direct Antioxidant Activity in SH-SY5Y Cells (percentage inhibition of ROS formation induced by t-BOOH)” value is reported as “In ^d”. Besides, in the data set on SH-SY5Y cells [3], the “effect on intracellular GSH levels” value was “increased the GSH levels”.

In the case of `COc1cc(Cn2cc(C(=O)N/N=C/c3cc(O)cc(O)c3)nn2)ccc1O` [3b, (E)-N’-(3,5-Dihydroxybenzylidene)-1-(4-hydroxy-3-methoxybenzyl)-1H-1,2,3-triazole-4-carbohydrazide], in the data set with SH-SY5Y cells [1], the toxic effects entry is reported as “did not show any toxic effects” and the pIC50 was less than 4.10. Further, in the data set on SH-SY5Y cells [2], the inhibition at 10 µM is 14.1% and the “Direct Antioxidant Activity in SH-SY5Y Cells (percentage inhibition of ROS formation induced by t-BOOH)” value is “In”. Also, the “effect on intracellular GSH levels” value with SH-SY5Y cells [3] is on record as “increased the GSH levels”.

`COc1ccc(/C=N/NC(=O)c2cn(Cc3ccc(O)c(OC)c3)nn2)cc1` [3c, (E)-1-(4-Hydroxy-3-methoxybenzyl)-N’-(4-methoxybenzylidene)-1H-1,2,3-triazole-4-carbohydrazide]: the pIC50 with SH-SY5Y cells [1] is 4.99.

`COc1cc(/C=N/NC(=O)c2cn(Cc3ccc(O)c(OC)c3)nn2)cc(OC)c1` [3d, (E)-N’-(3,5-Dimethoxybenzylidene)-1-(4-hydroxy-3-methoxybenzyl)-1H-1,2,3-triazole-4-carbohydrazide]: the pIC50 in the data set on SH-SY5Y cells [1] was 4.17.

On EeAChE, `COc1cc(/C=N/NC(=O)c2cn(Cc3ccc(O)c(OC)c3)nn2)ccc1O` [3e, (E)-1-(4-Hydroxy-3-methoxybenzyl)-N’-(4-hydroxy-3-methoxybenzylidene)-1H-1,2,3-triazole-4-carbo-hydrazide] gave a pIC50 of 4.58. Besides, the inhibition at 30 µM at EeAChE (read-out: inhibition of the AChE activity at the screening concentration) was more than 50%. Also, the “ability to inhibit BuChE” value at eqBuChE is on record as “no relevant activity was detected”. Also, in the data set with SH-SY5Y cells [1], the toxic effects entry is recorded as “did not show any toxic effects” and the pIC50 is less than 4.10. Moreover, in the data set with SH-SY5Y cells [2], the inhibition at 10 µM is 35.2%. The “effect on intracellular GSH levels” value with SH-SY5Y cells [3] is on record as “increased the GSH levels”. For the same compound, the “effect on loss of neuronal viability induced by OAβ42” value in the data set on SH-SY5Y cells [4] is “significantly reduced the loss of neuronal viability”.

For the compound `COc1cc(Cn2cc(C(=O)N/N=C/c3ccccc3)nn2)ccc1O` [3f, (E)-N’-Benzylidene-1-(4-hydroxy-3-methoxybenzyl)-1H-1,2,3-triazole-4-carbohydrazide], the pIC50 with SH-SY5Y cells [1] was 4.20.

On to `COc1cc(Cn2cc(C(=O)N/N=C/c3ccc(N4CCCCC4)cc3)nn2)ccc1O` [3g, (E)-1-(4-Hydroxy-3-methoxybenzyl)-N’-(4-(piperidin-1-yl)benzylidene)-1H-1,2,3-triazole-4-carbohydrazide], for which the pIC50 in the data set on SH-SY5Y cells [1] was 4.99.

With `COc1cc(Cn2cc(C(=O)N/N=C/c3ccc(Cl)cc3)nn2)ccc1O` [3h, (E)-N’-(4-Chlorobenzylidene)-1-(4-hydroxy-3-methoxybenzyl)-1H-1,2,3-triazole-4-carbohydrazide], in the data set with SH-SY5Y cells [1], the pIC50 was 5.52.

As for `COc1cc(Cn2cc(C(=O)N/N=C/c3cccc(Cl)c3)nn2)ccc1O` [3i, (E)-N’-(3-Chlorobenzylidene)-1-(4-hydroxy-3-methoxybenzyl)-1H-1,2,3-triazole-4-carbohydrazide], in the data set with SH-SY5Y cells [1], the pIC50 was 4.98.

Take `COc1cc(Cn2cc(C(=O)N/N=C/c3ccccc3Cl)nn2)ccc1O` [3j, (E)-N’-(2-Chlorobenzylidene)-1-(4-hydroxy-3-methoxybenzyl)-1H-1,2,3-triazole-4-carbohydrazide]: the pIC50 in the data set with SH-SY5Y cells [1] was 4.55.

`COc1cc(Cn2cc(C(=O)N/N=C/c3ccc(F)cc3)nn2)ccc1O` [3k, (E)-N’-(4-Fluorobenzylidene)-1-(4-hydroxy-3-methoxybenzyl)-1H-1,2,3-triazole-4-carbohydrazide]: the pIC50 with SH-SY5Y cells [1] was 5.44.

As to `COc1cc(Cn2cc(C(=O)N/N=C/c3ccccc3F)nn2)ccc1O` [3l, (E)-N’-(2-Fluorobenzylidene)-1-(4-hydroxy-3-methoxybenzyl)-1H-1,2,3-triazole-4-carbohydrazide], in the data set with SH-SY5Y cells [1], the pIC50 is 4.16.

Take `COc1cc(Cn2cc(C(=O)N/N=C/c3cccc(F)c3)nn2)ccc1O` [3m, (E)-N’-(3-Fluorobenzylidene)-1-(4-hydroxy-3-methoxybenzyl)-1H-1,2,3-triazole-4-carbohydrazide]: in the data set with SH-SY5Y cells [1], the pIC50 is 4.37.
